This is an account of results in patent US10130693B2, “Peptides, combination of peptides and scaffolds for use in immunotherapeutic treatment of various cancers” (Immatics Biotechnologies GmbH, priority 2015, dated 2018).

One experiment has as its system CD8+ T cells. The experiment can be described thus: In vitro immunogenicity: T-cell priming with aAPCs loaded with HLA-A*02 peptide/MHC and anti-CD28, multimer staining. Type of experiment: cell-based, human. The settings on record: HLA-A*02 peptides. An excerpt: In order to obtain information regarding the immunogenicity of the TUMAPs of the present invention, the inventors performed investigations using an in vitro T-cell priming assay based on repeated stimulations of CD8+ T cells with artificial antigen presenting cells (aAPCs) loaded with peptide/MHC complexes and anti-CD28 antibody.
In order to perform in vitro stimulations by artificial antigen presenting cells loaded with peptide-MHC complex (pMHC) and anti-CD28 antibody, the inventors first isolated CD8+ T cells from fresh HLA-A*02 leukapheresis products via positive selection using CD8 microbeads (Miltenyi Biotec, Bergisch-Gladbach, Germany) of healthy donors obtained from the University clinics Mannheim, Germany, after informed consent.
PBMCs and isolated CD8+ lymphocytes were incubated in T-cell medium (TCM) until use consisting of RPMI-Glutamax (Invitrogen, Karlsruhe, Germany) supplemented with 10% heat inactivated human AB serum (PAN-Biotech, Aidenbach, Germany), 100 U/ml Penicillin/100 μg/ml Streptomycin (Cambrex, Cologne, Germany), 1 mM sodium pyruvate (CC Pro, Oberdorla, Germany), 20 μg/ml Gentamycin (Cambrex). 2.5 ng/ml IL-7 (PromoCell, Heidelberg, Germany) and 10 U/ml IL-2 (Novartis Pharma, Nürnberg, Germany) were also added to the TCM at this step.
Generation of pMHC/anti-CD28 coated beads, T-cell stimulations and readout was performed in a highly defined in vitro system using four different pMHC molecules per stimulation condition and 8 different pMHC molecules per readout condition.
The purified co-stimulatory mouse IgG2a anti human CD28 Ab 9.3 (Jung et al., 1987) was chemically biotinylated using Sulfo-N-hydroxysuccinimidobiotin as recommended by the manufacturer (Perbio, Bonn, Germany). Beads used were 5.6 μm diameter streptavidin coated polystyrene particles (Bangs Laboratories, Illinois, USA).
pMHC used for positive and negative control stimulations were A*0201/MLA-001 (peptide […] (SEQ ID NO. 418) from modified Melan-A/MART-1) and A*0201/DDX5-001 ([…] from DDX5, SEQ ID NO. 419), respectively.
800.000 beads/200 μl were coated in 96-well plates in the presence of 4×12.5 ng different biotin-pMHC, washed and 600 ng biotin anti-CD28 were added subsequently in a volume of 200 μl. Stimulations were initiated in 96-well plates by co-incubating 1×10^6 CD8+ T cells with 2×10^5 washed coated beads in 200 μl TCM supplemented with 5 ng/ml IL-12 (PromoCell) for 3 days at 37° C. Half of the medium was then exchanged by fresh TCM supplemented with 80 U/ml IL-2 and incubating was continued for 4 days at 37° C. This stimulation cycle was performed for a total of three times. For the pMHC multimer readout using 8 different pMHC molecules per condition, a two-dimensional combinatorial coding approach was used as previously described (Andersen et al., 2012) with minor modifications encompassing coupling to 5 different fluorochromes. Finally, multimeric analyses were performed by staining the cells with Live/dead near IR dye (Invitrogen, Karlsruhe, Germany), CD8-FITC antibody clone SK1 (BD, Heidelberg, Germany) and fluorescent pMHC multimers. For analysis, a BD LSRII SORP cytometer equipped with appropriate lasers and filters was used. Peptide specific cells were calculated as percentage of total CD8+ cells. Evaluation of multimeric analysis was done using the FlowJo software (Tree Star, Oregon, USA). In vitro priming of specific multimer+CD8+ lymphocytes was detected by comparing to negative control stimulations.

The next experiment addresses HLA-A*02:01 (Homo sapiens, UniProt P04439, D140Y/D185E/D98H/E176V/E277Q/G131W/G231S/I119V/I121R/I166T/I218V/L300P/L318F/N151K/N90K/P208A/P217A/Q86G/Q94H/R138H/R169H/T345S). The experiment can be described thus: MHC binding assay, UV-ligand exchange with beta2m ELISA (exchange yield), HLA-A*02. The settings on record: binding to HLA-A*02 ranged by peptide exchange yield. Summed up:
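Peptide–MHC complexes formed by UV-ligand exchange: a UV-cleavable peptide is replaced by the test peptide, and only binders keep the complex stable. Exchange yield read by streptavidin-capture ELISA on reactions diluted 100-fold, detected with HRP anti-β2m (2 ug/ml, 1 h, 37° C) and TMB at 450 nm.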

In the case of “17 (ILHEHHIFL; listed as Homo sapiens) [compound 17]”, the “in vitro immunogenicity, Wells positive [%]” value (shortened to “in vitro immunogenicity … [%]”) in the experiment with CD8+ T cells was “+ (<20% = +)”. Also, the “Peptide exchange (MHC class I binding score)” value (“Peptide exchange” for short) with HLA-A*02:01 was “+++ (50%-75% = +++)”.

For the substance “8 (KLGPFLLNA; listed as Homo sapiens) [compound 8]”, the “in vitro immunogenicity … [%]” value in the experiment on CD8+ T cells is “+++ (50%-69% = +++)”. Moreover, the “Peptide exchange” value with HLA-A*02:01 was “+++ (50%-75% = +++)”.

“7 (AAAAKVPEV; listed as Homo sapiens) [compound 7]”: in the experiment with CD8+ T cells, the “in vitro immunogenicity … [%]” value is given as “+ (<20% = +)”. The “Peptide exchange” value with HLA-A*02:01 is “+++ (50%-75% = +++)”.

Regarding “43 (LLWAGPVTA; listed as Homo sapiens) [compound 43]”, the “in vitro immunogenicity … [%]” value in the experiment with CD8+ T cells is “++++ (>=70% = ++++)”. In the experiment with HLA-A*02:01, the “Peptide exchange” value is “+++ (50%-75% = +++)”.

For the substance “331 (AIWKELISL; listed as Homo sapiens) [compound 331]”, in the experiment on CD8+ T cells, the “in vitro immunogenicity … [%]” value is listed as “++ (20%-49% = ++)”. Besides, the “Peptide exchange” value with HLA-A*02:01 was “+++ (50%-75% = +++)”.
